Our source for the Ki and IC50 values is ChEMBL document CHEMBL3763155 (Bioorg Med Chem Lett, 2016).

A short description of assay [1]: Displacement of 125I-[Sar1,Leu8] angiotensin-2 from rat type 1 angiotensin-2 receptor expressed in African green monkey COS7 cells after 24 hrs. In kind it is cell-based. The settings on record: cos-7. Background: Displacement assays read how much labelled ligand stays bound in the presence of the test substance.
Assay [2] deals with T1, Type-2 angiotensin II receptor (Homo sapiens, UniProt P50052).
T1 sequence (P50052 whole entry): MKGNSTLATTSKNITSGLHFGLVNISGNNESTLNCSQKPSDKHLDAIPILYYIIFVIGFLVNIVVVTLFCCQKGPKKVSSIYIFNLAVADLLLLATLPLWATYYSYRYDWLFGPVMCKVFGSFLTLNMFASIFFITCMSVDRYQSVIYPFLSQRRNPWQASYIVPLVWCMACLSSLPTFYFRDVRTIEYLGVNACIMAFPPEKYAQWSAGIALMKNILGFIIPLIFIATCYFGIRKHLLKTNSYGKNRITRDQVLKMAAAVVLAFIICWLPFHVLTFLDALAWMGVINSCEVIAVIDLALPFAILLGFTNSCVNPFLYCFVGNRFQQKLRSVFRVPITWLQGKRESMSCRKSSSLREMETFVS
The experiment in a line: Binding affinity to type-2 angiotensin-2 receptor (unknown origin).

Regarding `CCOc1nc2cccc(C(=O)O)c2n1Cc1ccc(-c2ccccc2-c2nnn[nH]2)cc1`, the Ki was 0.17 nM in assay [1] and greater than 10000 nM in assay [2].
As for `CCCCOC(=O)NS(=O)(=O)c1ccc(CCC)cc1-c1ccc(Cn2c(CC)nc3c(C)cc(C)nc32)cc1`, the half-inhibitory concentration (IC50) in assay [1] was determined as 1.5 nM.
Still for that read-out and setting: the value for `CCCCc1nc(Cl)c(CO)n1Cc1ccc(-c2ccccc2-c2nnn[nH]2)cc1` [LOSARTAN] was 12.1 nM.
`COc1ccc2c(c1OCc1ccccc1)C[C@@H](C(=O)O)N(C(=O)C(c1ccccc1)c1ccccc1)C2` [OLODANRIGAN] showed an inhibition constant Ki in assay [1] of 409 nM.
Same read-out and setting: as for `CCCCOC(=O)NS(=O)(=O)c1sc(CC(C)C)cc1-c1ccc(Cn2ccnc2)cc1` [BULOXIBUTID], the figure is greater than 10000 nM.
`CCCCOC(=O)NS(=O)(=O)c1ccc(CC(C)C)cc1-c1ccc(Cn2c(CC)nc3c(C)cc(C)nc32)cc1` gave a half-inhibitory concentration (IC50) in assay [1] of 2.1 nM.
`CC[C@H](C)[C@H](NC(=O)[C@H](Cc1ccc(O)cc1)NC(=O)[C@@H](NC(=O)[C@H](CCCNC(=N)N)NC(=O)[C@@H](N)CC(=O)O)C(C)C)C(=O)N[C@@H](Cc1cnc[nH]1)C(=O)N1CCC[C@H]1C(=O)N[C@@H](Cc1ccccc1)C(=O)O` [ANGIOTENSIN II]: in assay [1], the inhibition constant Ki came out at 0.95 nM.

Broadly, the Ki is a dissociation constant, usually derived from enzyme kinetics or from competition with a known ligand. Broadly, the IC50 is the concentration at which inhibition is half-maximal.
